This is an account of results in US6300346A, “Indenyl hydroxamic acids, (hydroxy) ureas and urethanes for treating patients with precancerous lesions” (Cell Pathways, Inc., priority 2000, dated 2001).

A short description of data set [1]: Solubility remark in the HT-29 table. It counts as physicochemical. The conditions noted are these: printed in the IC50 column of TABLE I.
For data set [2], the system named is SW-480 colon adenocarcinoma cells. Nature of the data set: Apoptosis: DNA fragmentation assay (Cell Death Detection ELISA plus). It counts as cell-based. To be noted: Homo sapiens, SW480, SW-480, 48 hrs; for EC50: apoptosis. Here is the method: (§1) The compounds of this invention were assayed for their effect on the human colon carcinoma cell lines HT-29 and SW-480 obtained from ATCC (Rockville, Md.), representative of precancerous lesions to ascertain the degree of tumor growth inhibition following treatment with compounds of this invention. The cell line employed for these experiments is well characterized, and is used by the United States National Cancer Institute in their screening program for new anticancer drugs. Growth inhibition of this cell line is thought to be indicative of a benefit on precancerous lesions and neoplasms.
Apoptosis was measured based on the amount of fragmented DNA contained in cell lysates. Briefly, SW-480 colon adenocarcinoma cells were plated at a density of 10K cells/well in 180 μl to 96-well microtitre plates ("MTP"), and incubated for 24 hrs. Cells were then treated with 20 μl aliquots appropriately diluted compound, and allowed to incubate for 48 hrs.
After the incubation, samples were prepared according to the following steps. […] Samples were analyzed immediately, because storage at 4 C or […] reduces the ELISA-signals.
Samples were then processed according to a DNA fragmentation assay protocol, and dose-response curves were generated based on optical density readings. […] The assay is based on a quantitative sandwich-enzyme-immunoassay-principle using mouse monoclonal antibodies directed against DNA and histones, respectively. […]
According to the vendor, the assay works in the following fashion. […] After removal of unbound antibodies by a washing step, the amount of nucleosomes is quantified by the POD retained in the immunocomplex. POD is determined photometrically with ABTS® (2,2'-Azino-di[3-ethylbenzthiazolin-sulfonat])* as substrate.
Fold stimulation (FS=ODmax/ODveh), an indicator of apoptotic response, was determined for each compound data analysis software, or by estimates based on the effective concentration range of each compound (ECR=min. effective dose-min. dose to peak effect).

Data set [3] deals with HT-29 human colon carcinoma cells. Nature of the data set: HT-29 tumor cell growth inhibition / cytotoxicity (Sulforhodamine B Assay). The format is cell-based. The conditions noted are these: 168 h, HT-29, seven days continuous exposure. As for the experimental part:
as §1
Tumor cell cytotoxicity was assessed using the Sulforhodamine B Assay. In this assay, HT-29 tumor cells were plated in 96-well plates and treated with drug-containing media for seven days (continuous exposure). At the end of the exposure period, the cell were fixed and stained with sulforhodamine B (a pink fluorescent dye). The dye was then solubilized, and the optical density of the resulting pink solution determined on a 96-well plate reader. The mean dye intensity of the treated wells was then divided by the mean dye intensity in the control wells (6 wells of each) to determine the effect of the drug on the cells. Dye intensity is proportional to the number of cells or amount of protein per well. The resultant "percent of control" value then represents the degree of growth inhibition caused by the drug.
For each experiment, an IC50 value was determined and used for comparative purposes. This value is equivalent to the concentration of drug needed to inhibit tumor cell growth by 50%. IC50 values were obtained graphically by connecting the mean values for each drug concentration tested. Each experiment included at least six wells per drug concentration. Concentration was plotted on a log scale on the X-axis.

The next data set relates to polyps. To be noted: when the patient take the drug; cited from earlier work.
The conditions of data set [4]: sulfoxide itself, believed; cited from earlier work.
Another data set has as its system prostaglandin synthesis. To be noted: acknowledged / regarded; cited from earlier work.

On to `CC1=C(CNC(=O)NC(C)C)c2cc(F)ccc2/C1=C\c1ccc(S(C)(=O)=O)cc1` [Example 21, (Z)-N-{[5-Fluoro-2-methyl-1-(p-methylsulfonylbenzylidene)inden-3-yl]-methyl}-N'-isopropyl urea], for which the “solubility (reason for IC50 N/A)” value in data set [1] is “not very soluble”.
Regarding `CC1=C(CNC(=O)NCCCN(C)C)c2cc(F)ccc2/C1=C\c1ccc(S(C)(=O)=O)cc1` [Example 22, (Z)-N-{[5-Fluoro-2-methyl-1-(p-methylsulfonyl-benzylidene)-inden-3-yl]-methyl}-N'-dimethylaminopropyl urea], the 50% effective concentration (EC50) in data set [2] was found to be 75 µM. The compound further displayed an IC50 in data set [3] of 4.4 to 5.4 µM.
For `CC1=C(CNC(=O)NCc2ccccc2)c2cc(F)ccc2/C1=C\c1ccc(S(C)(=O)=O)cc1` [Example 23, (Z)-N-{[5-Fluoro-2-methyl-1-(p-methylsulfonyl-benzylidene)-inden-3-yl]-methyl}-N'-benzyl urea], the IC50 in data set [3] fell in the range of 1.6 to 3.2 µM.
For `CC1=C(CNC(=O)NCC(N)=O)c2cc(F)ccc2/C1=C\c1ccc(S(C)(=O)=O)cc1` [Example 24, (Z)-N-{[5-Fluoro-2-methyl-1-(p-methylsulfonyl-benzylidene)-inden-3-yl]-methyl}-N'-glycinamide urea], the “solubility (reason for IC50 N/A)” value in data set [1] is on record as “not very soluble”.
`CC1=C(CNC(=O)OC(C)C)c2cc(F)ccc2/C1=C\c1ccc(S(C)(=O)=O)cc1` [Example 25, (Z)-N-{[5-Fluoro-2-methyl-1-(p-methylsulfonyl-benzylidene)-inden-3-yl]-methyl}-O-isopropyl urethane] yielded a half-maximal inhibitory concentration (IC50) in data set [3] of 3.2 to 4 µM.
As for `COC(=O)NCC1=C(C)/C(=C/c2ccc(S(C)(=O)=O)cc2)c2ccc(F)cc21` [Example 26, (Z)-N-{[5-Fluoro-2-methyl-1-(p-methylsulfonyl-benzylidene)-inden-3-yl]-methyl}-O-methyl urethane], the maximal fold induction in data set [2] (FS=ODmax/ODveh, read-out: Fold Stimulation) lay within 5 to 6.8. Besides, in data set [2], the EC50 came out at 250 µM. In addition, in data set [3], the IC50 lay within 4.5 to 8 µM.
`CCOC(=O)NCC1=C(C)/C(=C/c2ccc(S(C)(=O)=O)cc2)c2ccc(F)cc21` [Example 27, (Z)-N-{[5-Fluoro-2-methyl-1-(p-methylsulfonyl-benzylidene)-inden-3-yl]-methyl}-O-ethyl urethane] displayed a concentration for half-maximal inhibition (IC50) in data set [3] of 4.1 µM.
The compound `COCCOC(=O)NCC1=C(C)/C(=C/c2ccc(S(C)(=O)=O)cc2)c2ccc(F)cc21` [Example 28, (Z)-N-{[5-Fluoro-2-methyl-1-(p-methylsulfonyl-benzylidene)-inden-3-yl]-methyl}-O-methoxyethyl urethane] gave an IC50 in data set [3] of 7.1 to 11 µM.
As for `CC1=C(CC(=O)O)c2cc(F)ccc2/C1=C\c1ccc([S+](C)[O-])cc1` (stereo not drawn) [Sulindac, (Z)-5-fluoro-2-methyl-1-(4-methylsulfinylbenzylidene)inden-3-ylacetic acid], in the data set with polyps, the effect on polyps entry is on record as “Polyps virtually disappear”. Moreover, the “activity as an anti-arthritic agent” value in data set [4] is “inactive”.
For `CSc1ccc(/C=C2/C(C)=C(CC(=O)O)c3cc(F)ccc32)cc1` [sulfide], the “activity as a prostaglandin (synthesis) inhibitor” value in the data set with prostaglandin synthesis is given as “active moiety as a prostaglandin inhibitor”.
Turning to `CC1=C(CC(=O)O)c2cc(F)ccc2/C1=C\c1ccc(S(C)(=O)=O)cc1` [sulfone], the “activity as a prostaglandin (synthesis) inhibitor” value in the data set with prostaglandin synthesis was “inactive”.
